Legend:
U87 cells [1] = assay: Flow cytometric analysis of apoptosis (fractional DNA content, annexin V binding); format: cell-based, human; conditions: fractional DNA content, TMZ 100 μM
Method: Fractional DNA content: U87 cells (10^5) were plated overnight at 37° C. with 5% CO2. The cells were then treated with TNFα (10 ng/mL) and/or TMZ (100 μM). At 72 h the cells were washed in PBS and fixed in ice-cold 70% (v/v) ethanol. The cells were washed twice and incubated in RNase (1 mg/mL) for 30 m at 37° C., then incubated in propidium iodide (PI) solution (100 ug/mL) for […] at 4° C. Flow cytometric analysis was performed on a FACSort instrument (Becton Dickinson Immunocytometry Systems, San Jose, Calif.), and the data were analyzed using the CellQuest software (Becton Dickinson).
Annexin V binding (van Engeland, M. et al. (1998) Cytometry 31(1):1-9): At 72 h cells were washed in PBS and incubated in the dark for 15 m with binding buffer containing 5 μl of Annexin V-FITC and 5 μl of PI (Annexin V-FITC apoptosis detection kit II). The data was analyzed by Flowjo analysis software (Tree Star Inc., Ashland, Oreg.).
Cells were either un-transfected or co-transfected with pRC-CMV-p65 or pRC-CMV in the presence of a GFP plasmid at a ratio of 4:1. Under these conditions, cells expressing GFP also expressed the co-transfected plasmid (Tang, F. et al. (2002) Mol Cell Biol 22:8571-8579). Cells were then left untreated or treated as described in the figure legends. At 72 h cells were washed in PBS and incubated in the dark for 15 m with binding buffer containing 5 μl of Annexin V-FITC and 5 μl of Propidium iodide (PI). In transfected cells, annexin V binding was assessed in GFP positive cells. Data was analyzed by Flowjo analysis software (Tree Star Inc., Ashland, Oreg., USA) as described in U.S. Provisional Application No. 60/604,251 (Yamini, B. et al. (2004) Cancer Res 64:6381-6384).

[2] = system: NF-κB in Seg-1 esophageal cancer cells; assay: NF-κB-responsive luciferase reporter assay, Seg-1; format: cell-based, human
U87 cells [3] = assay: U87 cell viability (Trypan Blue dye exclusion, MTS); format: cell-based, human; conditions: 10 ng/mL TNFα and/or 100 μM TMZ
Method: Trypan Blue dye exclusion method was employed. 10^4 U87 cells were plated and incubated at 37° C. overnight. Subsequently, the cells were contacted with media containing TNFα (10 ng/mL) and/or TMZ (100 μM), incubated for 3 h, and washed. […] All of the studies were performed in triplicate.

[4] = system: NF-κB in Panel pancreatic cancer cells; assay: NF-κB-responsive luciferase reporter assay, Panel; format: cell-based, human
LD50 of IP TMZ = assay: LD50 of IP TMZ; set-up: species or system mice; conditions: mouse, in vivo
[5] = system: U87 intracranial xenografts; assay: Intracranial glioma xenograft survival; format: in vivo, nude mice; conditions: first intracranial experiment; TMZ 20 mg/kg total IP, single IC Ad.Egr-TNF
Method: Intracranial Studies: In two separate experiments, 5×10^5 U87 cells were inoculated into the right caudate nucleus on day 0 using a screw guide technique (Lal, S. et al. (2000) J Neurosurg 92:326-333). In the first experiment, mice were randomized into four groups as described above in Example 4. On day 5, a single intracranial (IC) injection of 5×10^8 pu Ad.Egr-TNF in 5 μl volume was made directly into the tumor using the screw guide technique. TMZ (5 mg/kg) was given IP 3 h after IC vector inoculation. Three additional IP TMZ injections were administered on consecutive days for a total dose of 20 mg/kg. Control animals received SFM IT and IP.
In a second experiment, mice were randomized into eight groups (untreated control (UTC); intratumoral (IT) Ad.Egr-TNF alone; intraperitoneal (IP) TMZ alone; IR alone; Ad.Egr-TNF and TMZ; Ad.Egr-TNF and IR; TMZ and IR; and Ad.Egr-TNF, TMZ and IR). A single dose of 5×10^5 U87 cells was inoculated into the right caudate nucleus of each mouse on day 0 using a screw guide technique (Lal, S. et al. (2000) J Neurosurg 92:326-333). On day 5, 5×10^8 pu Ad.Egr-TNF in 5 μL volume was injected once via the screw guide directly into the tumor. Beginning two hours after vector injection, 5 Gy IR was delivered to the tumor area and repeated every 2-3 days to a total of 30 Gy. […]

p65 = assay: TNFα-induced p65 phosphorylation (Western blot); format: cell-based, human
Method: 20 μg of whole U87 cell (or nuclear) lysate was subjected to sodium dodecyl sulfate (SDS)-polyacrylamide gel electrophoresis (PAGE). Following electro-transfer, Immobilon-P membranes (Millipore Corp. Burlington, Mass., USA.) were probed with primary polyclonal antibody against IκBα, phospho-Ser32-IκBα, SAPK/JNK, phospho-Thr183/Tyr185-SAPK/JNK, p65, phospho-Ser536-p65 (Cell Signaling Technology Inc. Beverly, […]., USA) diluted 1:1000 overnight at 4° C. Anti-rabbit IgG HRP-linked secondary antibody (Cell Signaling Technology) was diluted 1:1000 in blocking buffer and applied for 1 h at room temperature. Immunoreactive bands were detected by SuperSignal enhanced chemiluminescence (ECL) (Pierce, Rockford, Ill., USA) and exposed to Kodak X-Omat film.

Cn1nnc2c(C(N)=O)ncn2c1=O [TMZ, temozolomide]
cell cycle distribution (U87 cells [1]): increase in the percentage of cells in G2/M phase | TNFα-induced NF-κB transcriptional activity [2]: activated | effect on U87 cell viability (U87 cells [3]): Minimal effects | TNFα-induced NF-κB transcriptional activity [4]: activated | LD50 (LD50 of IP TMZ): ~500 mg/kg | median survival [5]: 28 days | TNFα-induced p65 phosphorylation (p65): inhibits

— US20110091375A1, “USE OF THE COMBINATION COMPRISING TEMOZOLOMIDE AND TNF-ALPHA FOR TREATING GLIOBLASTOMA” (THE UNIVERSITY OF CHICAGO, priority 2004, published 2011)
